In paper PMC11078216, “Discovery of potent and selective activity-based probes (ABPs) for the deubiquitinating enzyme USP30” (RSC Chemical Biology, 2024):

How the values were obtained:
USP30 [1] = target: T1, USP30 (Homo sapiens, UniProt Q70CQ3); experiment: USP30 FP kinetic analysis (kobs/I, Ki, kinact) using Ub-Lys(TAMRA)-Gly; format: biochemical; conditions: for kinact/KI: read-out: kobs/I
T1 construct: Catalog #E-582 residues 57-517; purchased E-582
T1 sequence (Q70CQ3 57-517): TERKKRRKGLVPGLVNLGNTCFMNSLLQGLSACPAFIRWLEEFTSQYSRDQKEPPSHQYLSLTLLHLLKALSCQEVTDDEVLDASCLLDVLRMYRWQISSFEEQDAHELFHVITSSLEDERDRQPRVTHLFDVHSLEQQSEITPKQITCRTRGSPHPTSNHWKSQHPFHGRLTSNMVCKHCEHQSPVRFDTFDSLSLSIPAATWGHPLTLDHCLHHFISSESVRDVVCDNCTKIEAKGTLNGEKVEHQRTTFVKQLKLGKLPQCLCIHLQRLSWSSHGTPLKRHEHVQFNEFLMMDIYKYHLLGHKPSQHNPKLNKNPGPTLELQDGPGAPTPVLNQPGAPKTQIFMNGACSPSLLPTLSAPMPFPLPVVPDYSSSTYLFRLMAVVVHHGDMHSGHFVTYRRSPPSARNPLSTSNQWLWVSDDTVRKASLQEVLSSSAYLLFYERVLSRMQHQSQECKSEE
Protocol: We further characterised inhibition kinetics for ABPs in a FP assay using Ub-Lys(TAMRA)-Gly. kobs/I, Ki and kinact determination assay was performed using 30 nM USP30 and 100 nM Ub-Lys(TAMRA)-Gly as described in ESI, ^† Section S3.1.c. FP was monitored kinetically over an hour after addition of the substrate, and response curves fitted to y = (vi/kobs) (1 − exp(−kobsx)) to calculate kobs/I, 5680 (95% Cl = 4723–6638) M^−1 s^−1 for IMP-2587, and 3021 (95% Cl = 2350–3693) M^−1 s^−1 for IMP-2586 (Fig. S1, ESI ^†).
4. Biochemical and biological methods and proteomics
1) Biochemical USP30 fluorescence polarisation (FP) assay using Ub-Lys(TAMRA)-Gly […]
USP30 was diluted in reaction buffer A (40 mM Tris, pH 7.5, 0.005% Tween 20, 0.5 mg/ml BSA, 5 mM betamercaptoethanol) and 10 μL of diluted 10.5 nM […]
b. USP30 biochemical kinetic assay
Reactions were performed in triplicate in black 384 well plates (small volume, Greiner 784076) in a final reaction volume of 20 ul. […]
Pherastar Plus (BMG Labtech). l Excitation 540 nm; l Emission 590 nm.
Inhibition kinetics for compound ABP 2 and ABP 4 were determined by preparing compound dilution plates at 21× final concentration in 50% DMSO in water. 50% DMSO (1 μL) or diluted compound (1 μL) was added to the reaction plate. Substrate Ub-TAMRA (200 nM, 10 μL) (final concentration: 100 nM) was prepared in buffer A described in section 3.1.a and added to the reaction plate. Reactions were initiated by the addition of USP30 (21 nM, 10 μL) (final concentration 10 nM), and fluorescence polarisation read immediately for 1 h in every 2 min. Analysis was performed in GraphPad Prism.
Kinetic progress curves were fitted to equation y = (vi/kobs) (1 − exp(−kobs*x)) to determine the kobs value (for first 30 min data). The kobs value was then plotted against the inhibitor concentration to […]

USP30 [2] = conditions: following 30 minutes incubation; read-out: reported IC50 against USP30; cited from earlier work
[3] = 30 nM USP30, 100 nM Ub-Lys(TAMRA)-Gly, nonlinear regression to kobs = kinact/(1 + (Ki/x))

SMILES	Ki (USP30 [1]; [3])	kinact/KI (USP30 [1])	KI (inactivation) (USP30 [1]; [3])	IC50 (USP30 [2])
N#CN1CC[C@@H](NC(=O)c2cc(-c3ccccc3Oc3ccc(N=[N+]=[N-])cc3)n[nH]2)C1 [IMP-2586]	5.6 nM	3020 M⁻¹ s⁻¹	–	–
C#Cc1cccc(-c2cc(NC(=O)CC3CCN(C#N)C3)on2)c1 (stereo not shown) [IMP-2587]	42.8 nM	5680 M⁻¹ s⁻¹	42.7 nM	–
N#CN1CC[C@H](CC(=O)Nc2cc(-c3cccc(Cl)c3)no2)C1 [compound 1, reference compound]	–	–	–	1 to 10 nM
N#CN1CC[C@@H](NC(=O)c2cc(-c3ccccc3Oc3ccccc3)n[nH]2)C1 [compound 3, reference compound]	–	–	–	1.5 nM
